Measured values as given in ChEMBL document CHEMBL5113460, “Discovery of dual inhibitors of topoisomerase I and Cyclooxygenase-2 for colon cancer therapy” (Eur J Med Chem, 2022).
pIC50: −log10 of the molar value. Activity calls are given as the source filed them. The calls are words filed in the database; no cut-off is given here.

Legend:
[1] = target: T1, DNA topoisomerase 1 (Homo sapiens) (UniProt P11387); assay: Inhibition of topoisomerase 1 (unknown origin) assessed as relaxation of supercoiled plasmid pBR322 DNA at 10 uM incubated for 45 mins by ethidium bromide staining based agarose gel electrophoresis
T1 sequence (whole entry): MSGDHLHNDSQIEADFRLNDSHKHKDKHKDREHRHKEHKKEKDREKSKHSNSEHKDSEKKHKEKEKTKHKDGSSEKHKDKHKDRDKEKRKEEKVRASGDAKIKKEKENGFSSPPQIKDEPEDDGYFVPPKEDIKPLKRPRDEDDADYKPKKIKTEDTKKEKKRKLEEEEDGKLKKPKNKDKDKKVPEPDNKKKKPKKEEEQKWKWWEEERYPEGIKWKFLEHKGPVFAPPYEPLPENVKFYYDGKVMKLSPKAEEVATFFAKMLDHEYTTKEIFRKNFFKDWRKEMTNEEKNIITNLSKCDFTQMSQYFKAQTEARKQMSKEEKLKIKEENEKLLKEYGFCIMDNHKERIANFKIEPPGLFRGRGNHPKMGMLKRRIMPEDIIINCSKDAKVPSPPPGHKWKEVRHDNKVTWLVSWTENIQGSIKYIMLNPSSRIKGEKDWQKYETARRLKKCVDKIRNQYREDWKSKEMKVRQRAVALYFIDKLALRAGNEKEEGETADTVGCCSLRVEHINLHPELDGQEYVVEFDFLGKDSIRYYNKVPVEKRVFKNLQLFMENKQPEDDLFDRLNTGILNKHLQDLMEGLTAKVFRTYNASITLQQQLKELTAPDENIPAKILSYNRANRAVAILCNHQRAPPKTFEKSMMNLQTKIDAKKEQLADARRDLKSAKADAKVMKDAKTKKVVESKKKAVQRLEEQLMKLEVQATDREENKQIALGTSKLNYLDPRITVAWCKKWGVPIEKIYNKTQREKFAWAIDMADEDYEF

LoVo = assay: Antitumor activity against human LoVo cells assessed as inhibition of cell proliferation incubated for 72 hrs by MTT assay; assay type: functional, cell-based
[2] = target: T1, DNA topoisomerase 1 (Homo sapiens); assay: Poison activity at topoisomerase 1 (unknown origin) assessed as s increase in nicked DNA formation at 1 mM using supercoiled plasmid DNA as substrate at 200 to 400 uM incubated for 35 mins by agarose gel electrophoresis
[3] = target: T1, DNA topoisomerase 1 (Homo sapiens); assay: Inhibition of topoisomerase 1 (unknown origin) assessed as relaxation of supercoiled plasmid pBR322 DNA at 1 uM incubated for 45 mins by ethidium bromide staining based agarose gel electrophoresis
HT-29 [4] = assay: Induction of apoptosis in human HT-29 cells assessed as late apoptotic cells at 4 uM incubated for 24 hr by Annexin-V-FITC/PI staining based flow cytometry (Rvb=8.60%); assay type: functional
RKO [5] = assay: Induction of apoptosis in human RKO cells assessed as increase in cleaved caspase-3 protein level at 3 to 9 uM incubated for 24 hrs by western blot analysis; assay type: functional, cell-based; conditions: dose 3-9 µM
RKO [6] = assay: Induction of apoptosis in human RKO cells assessed as necrotic cells at 3 uM incubated for 24 hr by Annexin-V-FITC/PI staining based flow cytometry (Rvb= 0.30%); assay type: functional
[7] = Cmax in Sprague-Dawley rat at 100 mg/kg, po and measured upto 24 hrs by LC-MS analysis; assay type: ADME, organism-based; set-up: time < 24 hrs, dose 100 mg/kg, route po; conditions: in vivo
RKO [8] = assay: Inhibition of NF-kappaB signalling pathway in human RKO cells assessed as decrease in phosphorylated IkappaB level at 3 to 9 uM incubated for 24 hrs by Western blot analysis; assay type: cell-based; conditions: dose 3-9 µM
HT-29 [9] = assay: Antitumor activity against human HT-29 cells xenografted in BALB/c mouse assessed as inhibition of tumor cell proliferation at 30 mg/kg, ip bid for 14 days by Ki67 staining based immunohistochemical analysis (Rvb= 16.61+/-1.05%); assay type: functional; set-up: scale not given: the % may be the effect or the level left; conditions: time 14 day
RKO [10] = assay: Antitumor activity against human RKO cells assessed as inhibition of cell proliferation incubated for 72 hrs by MTT assay; assay type: functional, cell-based
RKO [11] = assay: Induction of apoptosis in human RKO cells assessed as late apoptotic cells at 9 uM incubated for 24 hr by Annexin-V-FITC/PI staining based flow cytometry (Rvb= 4.49%); assay type: functional
HT-29 [12] = assay: Induction of apoptosis in human HT-29 cells assessed as late apoptotic cells at 2 uM incubated for 24 hr by Annexin-V-FITC/PI staining based flow cytometry (Rvb=8.60%); assay type: functional
[13] = Half life in Sprague-Dawley rat at 100 mg/kg, po and measured upto 24 hrs by LC-MS analysis; assay type: ADME, organism-based; conditions: in vivo
HCT-116 = assay: Antitumor activity against human HCT-116 cells assessed as inhibition of cell proliferation incubated for 72 hrs by MTT assay; assay type: functional, cell-based; conditions: HCT-116, 72 h
HT-29 [14] = assay: Inhibition of NF-kappaB signalling pathway in human HT-29 cells assessed as decrease in phosphorylated IkappaB level at 2 to 8 uM incubated for 24 hrs by Western blot analysis; assay type: cell-based; conditions: dose 2-8 µM
HT-29 [15] = assay: Antiproliferative activity against human HT-29 cells assessed as inhibition of cell colonies at 0.25 to 1 uM incubated for 7 days by crystal violet staining based microscopic analysis; assay type: functional; conditions: dose 0.25-1 µM, time 7.0 day
RKO [16] = assay: Induction of apoptosis in human RKO cells assessed as decrease in Bcl-2 protein level at 3 to 9 uM incubated for 24 hrs by western blot analysis; assay type: functional, cell-based; conditions: dose 3-9 µM
HT-29 [17] = assay: Induction of apoptosis in human HT-29 cells assessed as increase in intracellular ROS level at 2 to 8 uM for 24 hrs by DCFH-DA staining-based flow cytometric analysis; assay type: functional, cell-based; conditions: dose 2-8 µM
HT-29 [18] = assay: Induction of apoptosis in human HT-29 cells assessed as viable cells at 8 uM incubated for 24 hr by Annexin-V-FITC/PI staining based flow cytometry (Rvb= 83.5%); assay type: functional; conditions: read-out: Activity
HT-29 [19] = assay: Induction of apoptosis in human HT-29 cells assessed as necrotic cells at 8 uM incubated for 24 hr by Annexin-V-FITC/PI staining based flow cytometry (Rvb=1.67%); assay type: functional
RKO [20] = assay: Induction of apoptosis in human RKO cells assessed as late apoptotic cells at 3 uM incubated for 24 hr by Annexin-V-FITC/PI staining based flow cytometry (Rvb= 4.49%); assay type: functional
[21] = AUC (0-t) in Sprague-Dawley rat at 30 mg/kg, po and measured upto 12 hrs by LC-MS analysis; assay type: ADME, organism-based; set-up: dose 30 mg/kg, time < 12 hrs, route po; conditions: in vivo
RKO [22] = assay: Induction of cell cycle arrest in human RKO cells assessed as ratio of G1/G0 phase at 2 to 8 uM incubated for 24 hrs by flow cytometry (Rvb= 37.57%); assay type: functional; conditions: dose 2-8 µM
HT-29 [23] = assay: Induction of apoptosis in human HT-29 cells assessed as early apoptotic cells at 4 uM incubated for 24 hr by Annexin-V-FITC/PI staining based flow cytometry (Rvb=6.25%); assay type: functional
RKO [24] = assay: Induction of apoptosis in human RKO cells assessed as increase in intracellular ROS level at 3 to 9 uM for 24 hrs by DCFH-DA staining-based flow cytometric analysis; assay type: functional, cell-based; conditions: dose 3-9 µM
HT-29 [25] = assay: Antitumor activity against human HT-29 cells xenografted in BALB/c mouse assessed as inhibition of tumor growth at 30 mg/kg, ip bid and measured after 14 days by vernier caliper method; assay type: functional; conditions: HT-29, 336 h, time 14 day, read-out: TGI

inhibition [1]: 69%
pIC50 (LoVo): 5.31
inhibition [3]: 53.2%
Cmax [7]: 2000 ng/mL
half-life [13]: 8.87 h
pIC50 (HCT-116): 5.07
AUC(0-t) at 12 h [21]: 5410 ng·h/mL
SMILES: Cc1c(Cl)cccc1Nc1ccccc1C(=O)Nc1ccc(N2CCNCC2)cc1
Activity [2]: Active
Activity (HT-29 [4]): 14%
Activity (RKO [5]): Active
Activity (RKO [6]): 0.46%
inhibition (RKO [8]): Active
Activity (HT-29 [9]): 3.27%
pIC50 (RKO [10]): 5.69
Activity (RKO [11]): 11.2%
Activity (HT-29 [12]): 11%
inhibition (HT-29 [14]): Active
Activity (HT-29 [15]): Active
Activity (RKO [16]): Active
Activity (HT-29 [17]): Active
viability at 8 µM (HT-29 [18]): 68.9%
Activity (HT-29 [19]): 1.05%
Activity (RKO [20]): 4.66%
Activity (RKO [22]): 76.99%
Activity (HT-29 [23]): 4.95%
Activity (RKO [24]): Active
inhibition in vivo at 30 mg/kg (HT-29 [25]): 57.9%
